Legend:
HEK293 cells [1] = experiment: Luminex human 48-plex analysis of cytokines and immune activation markers released from HEK293 cells lipofected with eGFP-mRNA with or without cloaking; format: cell-based
Description: As an initial assessment of how cloaking affects the innate immune responses of mRNA, we measured the release of cytokines and immune activation markers from HEK293 cells that were lipofected by eGFP-mRNA with or without cloaking. HEK293 cells were transfected with 2 μg of mRNA with lipofectamine MessengerMax. […] In comparison. […] The translation of eGFP-mRNA was insignificant at this time (6 hours post-transfection), so the release of these immunomodulatory cytokines/chemokines is largely due to cells sensing the mRNA.
We further evaluated the effect of 2′-acylation on long-term immune response with Luminex human 48-plex assays in HEK293 cells that were transfected with modified eGFP-mRNA (FIG. 3 and FIG. 4).
We next investigated whether the chemical structure of acylating reagents may differentially modulate certain innate immune response pathways. […] Because the maximum level of cloaking varied among these reagents, we proceeded to equimolarly cloak at ~50% of unpaired accessible 2′-hydroxyls of eGFP-mRNA with a similar level of modification. We measured the release of cytokines and immune activation markers from HEK293 cells that were lipofected by modified eGFP-mRNA with or without cloaking. HEK293 cells were transfected with 2 μg of mRNA aliquots with lipofectamine MessengerMax. […] Thus, acylating reagents with diverse chemical structures can differentially modulate certain innate immune-responsive pathways.

ISG15 = experiment: RT-qPCR of ISG15 mRNA expression (Type I innate immune response via the RIG-1 pathway) in HEK293 cells lipofected with eGFP-mRNA; format: cell-based, human; details: HEK293 lipofected by eGFP-mRNA with or without cloaking by DMG-Im
Text: (§1) Transfection of in vitro transcribed RNA can trigger a potent Type I innate immune response in HEK293 cells (PMID: 30011268). Next, we investigated whether cloaking may modulate such response in HEK293 cells. To do this, HEK293 cells were lipofected by eGFP-mRNA with or without cloaking by DMG-Im. We measured the mRNA expression level of ISG15, an activation marker downstream of Type I innate immune response via the RIG-1 pathway.
as §1, with “DMG-lm.” for “DMG-Im.”

SW480 cells = details: cancerous cells (SW480); cloaked mRNA
Description: (§2) Thus, we investigated whether adducts by N,N-dimethylglycine acylimidazole can spontaneously release within the cells. To explored this, we employed cloaked mRNAs encoding a green fluorescence protein (GFP) (FIG. 6).

HEK293 cells [2] = experiment: Spontaneous restoration of translation of cloaked GFP-mRNA (green fluorescence) in HEK293 cells; details: normal cells (HEK293)
Description: as §2
We screened these acylimidazole reagents for spontaneous restoration of mRNA translation in HEK293 cells by transfection with d2GFP-mRNA aliquots that were acylated with these acylimidazole reagents at various levels of 2′-modification. We monitored the green fluorescence signal in HEK293 cells over three days.

[3] = long-term immune response, HEK293 transfected with modified eGFP-mRNA

Description for HeLa cells: as §2

## CN(C)CC(=O)n1ccnc1 [DMG-Im, N,N-dimethylglycine acylimidazole]
HEK293 cells [1]; FIGS. 3A-3B, cloaking by DMG-Im
  expression of some proinflammatory cytokines and immune activation markers over time: potently modulates
HEK293 cells [1]; HEK293 transfected with 2 μg of eGFP-mRNA, lipofectamine MessengerMax, six hours post-transfection
  release of proinflammatory chemokines and cytokines, including VEGF, RANTES/CCL5, PDGFAA, and IL8: potently suppressed
HEK293 cells [1]; RNA cloaked with the R group, FIGS. 9 and 10
  expression profiles of immune response mediators including type I interferon, CCL5, IL-8, IL-3, VEGF: distinct expression profiles
HEK293 cells [1]; cloaked vs unmodified eGFP-mRNA, six hours post-transfection
  expression of many mRNA-stimulated cytokines: not significantly modulated
HEK293 cells [1]; eGFP-mRNA with intermediate cloaking (~50% of unpaired 2′-hydroxyls) vs unmodified, 2 μg, six hours post-transfection
  reduction of the release of proinflammatory cytokines and activation (VEGF, RANTES/CCL5, PDGFAA, IL8): ≤ 90%
HEK293 cells [1]; [3]
  release of Granulocyte-macrophage colony-stimulating factor (GMCSF) over time: increasingly suppressed overtime
  release of proinflammatory Chemokine ligand 5 (CCL5) over time: increasingly suppressed overtime
  secretion of Vascular endothelial growth factor (VEGF) over time: increasingly less suppressed over time
ISG15
  mRNA expression level of ISG15: almost fully suppressed
HeLa cells; HeLa cells, d2GFP-mRNA cloaked with DMG-Im
  extension of the translational lifespan of mRNA encoding destabilized green fluorescent protein d2GFP: 31%
HeLa cells; cancerous cells (HeLa), cloaked mRNA
  translation of GFP-mRNA with N,N-dimethylglycine adducts: spontaneously restored
SW480 cells
  translation of GFP-mRNA with N,N-dimethylglycine adducts: spontaneously restored
HEK293 cells [2]
  translation of GFP-mRNA with N,N-dimethylglycine adducts: spontaneously restored
